According to patent publication US8853424B2 (Japan Science and Technology Agency, priority 2008, dated 2014):

Legend:
transglutaminase (TGase) = assay: Measurement of TG (TGase inhibitory activity, monodansyl cadaverine / N,N-dimethylcasein fluorescence, FDSS 3000); format: biochemical
Summary of the method: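 Compound (1 μL of 10 mM stock) added to 0.1 mL reaction: 100 mM HEPES-NaOH pH 7.5, 1 mM CaCl2, 20 μM monodansyl cadaverine, 0.05 mg/mL N,N-dimethylcasein, 5 μg/mL TGase. Rate of fluorescence change at 340 nm measured; DMSO control set to 100; TG50 is the concentration halving activity.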

[1] = tested on: Truncated N-terminal huntington 150 Q-EGFP-Neuron 2a cells; assay: Measurement of x-Fold (polyglutamine aggregation inhibitory activity); format: cell-based
Experimental: In the present invention, the polyglutamine aggregation inhibitory activity (x-Fold) can be measured, for example, by the method described in the Example.
The number of the aggregated cells, and the total number of cells were counted by Array Scan V T1 (manufactured by Cellomics, Pittuburg, USA), and the ratio of the aggregated cells to the total number of cells was determined (x-Fold). […]

[2] = TGase activity with compound (10 mM, 1 μL in 0.1 ml enzyme reaction solution), DMSO control taken as 100
[3] = TGase inhibitory activity value, Table 1
[4] = polyglutamine aggregation inhibitory activity, Table 1
[5] = ratio of aggregated cells to total number of cells, compound 20 μM, 20 hr, almost 1 without compound, smaller = stronger inhibition

Row | TGase activity remaining (% of DMSO control = 100) (transglutaminase (TGase); [2]) | TGase activity remaining (% of DMSO control = 100) (transglutaminase (TGase); [3]) | SMILES | x-Fold [1, 4] | x-Fold [1, 5] | other results
1 | 97 | 97 | OB(c1ccc(COCc2ccc(B(O)c3cccc4ccccc34)cc2)cc1)c1cccc2ccccc12 [Example 141, bis(4,4′-(1-naphthylhydroxyboryl)benzyl)ether] | 0.92 | 0.92 | 
2 | 99 |  | Cc1ccc(B(O)c2ccc(COCc3ccc(B(O)c4ccc(C)c(Cl)c4)cc3)cc2)cc1Cl [Example 144, bis(3-chloro-4-methylphenylhydroxyboryl 4-benzyl)ether] |  | 0.87 | 
3 | 97 | 97 | OB(O)c1ccc(F)c(Cl)c1 [Example 145, (3-chloro-4-fluorophenyl)boronic acid] | 0.91 | 0.91 | 
4 | 91 | 91 | Cc1cc(B(OCCN)c2ccccc2)ccc1B(OCCN)c1ccccc1 [Example 146, 1,4-bis(phenyl-2-aminoethoxyboryl) 2-methylbenzene] | 1.02 | 1.02 | 
5 | 68 | 68 | NCCOB(c1ccccc1)c1ccccc1COCc1ccccc1B(OCCN)c1ccccc1 [Example 148, bis(2,2′-(phenyl-2-aminoethoxyboryl)benzyl)ether] | 1.00 | 1.00 | 
6 | 96 |  | FC(F)(F)c1ccc(C(OB(c2ccccc2)c2ccc(COCc3ccc(B(OC(c4ccc(C(F)(F)F)cc4)c4ccccn4)c4ccccc4)cc3)cc2)c2ccccn2)cc1 (centres unmarked) [Example 149, 4,4′-di((phenyl 1-(pyridin-2-yl)-1-trifluoromethylphenylmethoxyboryl)benzyl)ether] |  | 0.99 | 
7 | 2 | 2 | Nc1ccccc1SB(c1ccccc1)c1ccccc1 [Example 150, diphenyl-2-aminophenylthioborane] | 0 | 0 | 
8 | 33 | 33 | NCCSB(c1ccccc1)c1ccccc1 [Example 151, 2-aminoethylthiodiphenylborane] | 0.87 | 0.87 | 
9 |  |  | CN(C)CCOB(c1ccccc1)c1ccc(COCc2ccc(B(OCCN(C)C)c3ccccc3)cc2)cc1 [Example 152, di(4,4′-phenyldimethylaminoethoxyboryl)benzylether] |  | 1.07 | TGase activity remaining (% of DMSO control = 100) (transglutaminase (TGase); TGase inhibitory activity value, Table 1, listed as 1073): 54; x-Fold ([1]; polyglutamine aggregation inhibitory activity, Table 1, listed as 1073): 1.07
10 | 105 | 105 | NCCNCCOB(c1ccccc1)c1ccccc1 [Example 154, diphenyl 2-aminoethylaminoethyl borinate] | 0.96- | 0.96 | 
11 | 100 |  | FC(F)(F)c1ccc(B(OCc2ccccn2)c2ccc(C(F)(F)F)cc2)cc1 [Example 155, di(trifluoromethylphenyl) 2-pyridinomethylborinate] |  | 1.02 | 
12 | 102 | 102 | CCCCB(CCCC)OC(=O)C(C)N (centres unmarked) [Example 159, dibutyl(alanine-O,N)borane] | 0.96 | 0.96 | 
13 | 88 | 88 | Cc1ccc(Cl)cc1B(OC(=O)C(N)CCCNC(N)=O)c1cc(Cl)ccc1C (centres unmarked) [Example 160, di(3-chloro-6-methyl-phenyl)(citrullinate-O,N)borane] | 1.02 | 1.02 | 
14 | 109 |  | Cc1ccc(B(OCC2CCCCN2C)c2ccc(C)c(Cl)c2)cc1Cl (centres unmarked) [Example 163, di(3-chloro-4-methylphenyl)N-methylpiperidinomethylborinate] |  | 1.00 | 
15 | 21 | 21 | COCOCc1ccc(B(OCCN(C)C)c2ccc(Oc3ccc(B(OCCN(C)C)c4ccccc4)cc3)cc2)cc1 [Example 167, (4-(phenyl-dimethylaminoethoxyboryl)phenyl)-(4′-(methoxymethoxymethylphenyl-dimethylaminoethoxyboryl)phenyl)ether] | 0.71 | 0.71 | 
16 | 35 | 35 | CNCCOB(c1ccccc1)c1ccc(Oc2ccc(B(OCCNC)c3ccc(COCOC)cc3)cc2)cc1 [Example 168, (4-(phenyl-N-methylaminoethoxyboryl)phenyl)-(4′-(methoxymethoxymethylphenyl-N-methylaminoethoxyboryl)phenyl)ether] | 0.72 | 0.72 | 
17 | 98 |  | Cc1ccc(Cl)cc1B(O)c1cc(Cl)ccc1C [Example 171, di(3-chloro-6-methylphenyl)borinic acid] |  | 0.71 | 
18 | 122 | 122 | c1ccc(B2OCCN3CCN(CCOB(c4ccccc4)c4cccc(c4)COCc4cccc2c4)CC3)cc1 [Example 173, (3,3′-(phenylpiperazino-O,O-ethoxyboryl)benzyl)ether] | 1.06 | 1.06 | 
19 | 103 |  | NCC(N)C(=O)OB(c1ccccc1)c1ccccc1 (centres unmarked) [Example 174, diphenyl(2,3-diaminopropionate-O,N)borane] |  | 0.99 | TGase activity remaining (% of DMSO control = 100) (transglutaminase (TGase); TGase inhibitory activity value, Table 1, listed as 2031-4): 103; x-Fold ([1]; polyglutamine aggregation inhibitory activity, Table 1, listed as 2031-4): 0.99
20 | 142 |  | NCCC(N)C(=O)OB(c1ccccc1)c1ccccc1 (centres unmarked) [Example 178] |  | 0.89 | TGase activity remaining (% of DMSO control = 100) (transglutaminase (TGase); TGase inhibitory activity value, Table 1, listed as 2039): 142; x-Fold ([1]; polyglutamine aggregation inhibitory activity, Table 1, listed as 2039): 0.89
21 | 127 |  | NCCCC(N)C(=O)OB(c1ccccc1)c1ccccc1 (centres unmarked) [Example 179, diphenyl(2,5-diaminopentanate-O,N)borane] |  | 0.99 | TGase activity remaining (% of DMSO control = 100) (transglutaminase (TGase); TGase inhibitory activity value, Table 1, listed as 2044): 127; x-Fold ([1]; polyglutamine aggregation inhibitory activity, Table 1, listed as 2044): 0.99
22 | 35 | 35 | Cc1ccc(B(OC(=O)c2ccccc2N)c2ccc(C)c(Cl)c2)cc1Cl [Example 180, di(3-chloro-4-methylphenyl)(anthranate-O,N)borane] | 0.98 | 0.98 | 
23 | 54 |  | NCCOB(c1ccc(C(F)(F)F)cc1)c1ccc(C(F)(F)F)cc1 [Example 181, di(trifluoromethylphenyl) 2-aminoethylborinate] |  | 0.69 | 
24 | 137 | 137 | Cc1ccc(B(OC(=O)C(N)CCC(N)=O)c2ccc(C)c(Cl)c2)cc1Cl (centres unmarked) [Example 182, di(3-chloro-4-methylphenyl)(glutaminate-O,N)borane] | 1.01 | 1.01 | 
25 | 91 | 91 | CCCCB(CCCC)OC(=O)C(N)CC(N)=O (centres unmarked) [Example 183, dibutyl(asparagine-O,N)borane] | 1.02 | 1.02 | 
26 | 94 | 94 | c1ccc(B(OCc2ccccn2)c2ccc(COCc3ccc(B(OCc4ccccn4)c4ccccc4)cc3)cc2)cc1 [Example 184, di(4-(phenyl-2-pyridylmethoxyboryl)benzyl)ether] | 0.95 | 0.95 | 

Row | SMILES | TGase activity remaining (% of DMSO control = 100) (transglutaminase (TGase); [2]) | TGase activity remaining (% of DMSO control = 100) (transglutaminase (TGase); [3]) | x-Fold [1, 4] | x-Fold [1, 5] | other results
27 | OB(c1ccc(F)cc1)c1ccc(COCc2ccc(B(O)c3ccc(F)cc3)cc2)cc1 [Example 142, bis(4-fluorophenylhydroxyboryl 4-benzyl)ether] | 88 | 88 | 0.24 | 0.24 | 
28 | OB(c1ccc(COCc2ccc(B(O)c3ccc(C(F)(F)F)cc3)cc2)cc1)c1ccc(C(F)(F)F)cc1 [Example 143, bis(4-trifluoromethylphenylhydroxyboryl 4-benzyl)ether] | 118 | 118 | 0.90 | 0.90 | 
29 | CCN(CC)CC.CN(C)c1ccc2c(-c3ccc(NC(=S)NCC(N)C(=O)OB(c4ccccc4)c4ccccc4)cc3C(=O)[O-])c3ccc(=[N+](C)C)cc-3oc2c1 (centres unmarked) [Example 175, diphenyl(tetramethylrhodamine 2,3-diaminopropionate-O,N)borane] | 5 | 5 | 0.89 | 0.89 | 
30 | CCN(CC)CC.CN(C)c1ccc2c(-c3ccc(NC(=S)NCCCCC(N)C(=O)OB(c4ccccc4)c4ccccc4)cc3C(=O)[O-])c3ccc(=[N+](C)C)cc-3oc2c1 (centres unmarked) [Example 176, diphenyl(tetramethylrhodamine 2,6-diaminocapronate-O,N)borane] | 47 | 47 | 1.06 | 1.06 | 
